In PubChem BioAssay (NCI):
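Results reflect a 48-hour exposure of cells in 96-well plates to compound at five concentrations. TGI: concentration producing complete growth inhibition.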

How the values were obtained:
Assay in all cases: DTP human tumour cell line panel, 48 h
[1] = system: SNB-78 CNS
[2] = system: OVCAR-4 ovarian
[3] = system: SF-268 CNS
[4] = system: HCC-2998 colon
[5] = system: HT29 colon
[6] = system: SK-OV-3 ovarian
[7] = system: NCI-H460 lung
[8] = system: OVCAR-5 ovarian
[9] = system: M19-MEL melanoma
[10] = system: EKVX NSCLC
[11] = system: NCI-H226 lung
[12] = system: HCT-116 colon
[13] = system: HOP-18 NSCLC
[14] = system: IGROV1 ovarian
[15] = system: 786-0 renal
[16] = system: UACC-62 melanoma
[17] = system: TK-10 renal
[18] = system: DLD-1 colon
[19] = system: OVCAR-8 ovarian
[20] = system: NCI-H522 lung
[21] = system: KM12 colon
[22] = system: LOX IMVI melanoma
[23] = system: COLO 205 colon
[24] = system: SNB-19 CNS
[25] = system: HOP-62 NSCLC
[26] = system: OVCAR-3 ovarian
[27] = system: SK-MEL-2 melanoma
[28] = system: SNB-75 CNS
[29] = system: MOLT-4 leukemia
[30] = system: A549 NSCLC
[31] = system: SK-MEL-5 melanoma
[32] = system: KM20L2 colon
[33] = system: SW-620 colon
[34] = system: K-562 leukemia
[35] = system: U251 CNS
[36] = system: ACHN renal
[37] = system: HL-60(TB) leukemia
[38] = system: SN12C renal
[39] = system: RPMI-8226 leukemia
[40] = system: UO-31 renal
[41] = system: MALME-3M melanoma
[42] = system: SK-MEL-28 melanoma
[43] = system: RXF 393 renal
[44] = system: NCI-H23 lung
[45] = system: SF-539 CNS
[46] = system: UACC-257 melanoma
[47] = system: CCRF-CEM leukemia
[48] = system: SF-295 CNS
[49] = system: LXFL 529 NSCLC
[50] = system: M14 melanoma
[51] = system: HCT-15 colon
[52] = system: SR leukemia
[53] = system: RXF-631 renal
[54] = system: DMS 114 small cell lung
[55] = system: XF 498 CNS
[56] = system: A498 renal
[57] = system: CAKI-1 renal
[58] = system: DMS 273 small cell lung

COC(=O)C(Cc1nc2ccccc2nc1C)/C(=N\NC(N)=O)C(=O)Nc1cccc([N+](=O)[O-])c1 (stereo unspecified)
TGI [1]: > 100 µM | TGI [2]: > 100 µM | TGI [3]: > 100 µM | TGI [4]: > 100 µM | TGI [5]: > 100 µM | TGI [6]: > 100 µM | TGI [7]: > 100 µM | TGI [8]: > 100 µM | TGI [9]: > 100 µM | TGI [10]: > 100 µM | TGI [11]: > 100 µM | TGI [12]: > 100 µM | TGI [13]: > 100 µM | TGI [14]: > 100 µM | TGI [15]: > 100 µM | TGI [16]: > 100 µM | TGI [17]: > 100 µM | TGI [18]: > 100 µM | TGI [19]: > 100 µM | TGI [20]: 27.3 µM | TGI [21]: > 100 µM | TGI [22]: > 100 µM | TGI [23]: > 100 µM | TGI [24]: > 100 µM | TGI [25]: > 100 µM | TGI [26]: > 100 µM | TGI [27]: > 100 µM | TGI [28]: > 100 µM | TGI [29]: > 100 µM | TGI [30]: > 100 µM | TGI [31]: > 100 µM | TGI [32]: > 100 µM | TGI [33]: > 100 µM | TGI [34]: > 100 µM | TGI [35]: > 100 µM | TGI [36]: > 100 µM | TGI [37]: > 100 µM | TGI [38]: > 100 µM | TGI [39]: > 100 µM | TGI [40]: > 100 µM | TGI [41]: > 100 µM | TGI [42]: > 100 µM | TGI [43]: > 100 µM | TGI [44]: > 100 µM | TGI [45]: > 100 µM | TGI [46]: > 100 µM | TGI [47]: > 100 µM | TGI [48]: > 100 µM | TGI [49]: > 100 µM | TGI [50]: > 100 µM | TGI [51]: > 100 µM | TGI [52]: > 100 µM | TGI [53]: > 100 µM | TGI [54]: > 100 µM | TGI [55]: > 100 µM | TGI [56]: > 100 µM | TGI [57]: > 100 µM

c1ccc2c(c1)N=C(c1cccc3ccccc13)CC(c1ccc3c(c1)OCO3)S2 (stereo unspecified)
TGI [1]: > 100 µM | TGI [2]: > 100 µM | TGI [3]: > 100 µM | TGI [4]: > 100 µM | TGI [5]: > 100 µM | TGI [6]: > 100 µM | TGI [7]: > 100 µM | TGI [8]: > 100 µM | TGI [9]: > 100 µM | TGI [10]: > 100 µM | TGI [11]: > 100 µM | TGI [12]: > 100 µM | TGI [13]: > 100 µM | TGI [14]: > 100 µM | TGI [58]: > 100 µM | TGI [15]: > 100 µM | TGI [16]: > 100 µM | TGI [17]: > 100 µM | TGI [18]: > 100 µM | TGI [19]: > 100 µM | TGI [20]: > 100 µM | TGI [21]: > 100 µM | TGI [22]: > 100 µM | TGI [23]: > 100 µM | TGI [24]: > 100 µM | TGI [25]: > 100 µM | TGI [26]: > 100 µM | TGI [27]: > 100 µM | TGI [28]: > 100 µM | TGI [29]: > 100 µM | TGI [30]: > 100 µM | TGI [31]: > 100 µM | TGI [32]: > 100 µM | TGI [33]: > 100 µM | TGI [34]: > 100 µM | TGI [35]: > 100 µM | TGI [36]: > 100 µM | TGI [37]: > 100 µM | TGI [38]: > 100 µM | TGI [40]: > 100 µM | TGI [41]: > 100 µM | TGI [43]: > 100 µM | TGI [44]: > 100 µM | TGI [45]: > 100 µM | TGI [46]: > 100 µM | TGI [47]: > 100 µM | TGI [48]: > 100 µM | TGI [49]: > 100 µM | TGI [50]: > 100 µM | TGI [52]: > 100 µM | TGI [53]: > 100 µM | TGI [55]: > 100 µM | TGI [56]: > 100 µM | TGI [57]: > 100 µM
